In patent US9187471B2, “Pyrido [4,3-b] indole and pyrido [3,4-b] indole derivatives and methods of use” (Medivation Technologies, Inc., priority 2010, dated 2015):

Experiments:
[1] = biological target: T1, human recombinant histamine H1 receptor (Homo sapiens, UniProt P35367); experiment: Histamine H1 radioligand binding ([3H]Pyrilamine); conditions: read-out: Histamine H1 Binding (1 μM), percent inhibition of specific binding; compound at 1 μM; 1.2 nM [3H]Pyrilamine
T1 construct: expressed in transfected cells; host or cells: CHO-K1
Outline: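 Results expressed as percent inhibition of specific [3H]pyrilamine binding, counted on filters after washing. Receptor source: CHO-K1 cells expressing recombinant human H1, in modified Tris-HCl buffer (50 mM, pH 7.4; 2 mM MgCl2, 100 mM NaCl, 250 mM sucrose). 1 μM pyrilamine defined non-specific binding.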

[2] = biological target: T2, human recombinant serotonin (5-Hydroxytryptamine) 5-HT6 receptor (Homo sapiens, UniProt P50406); experiment: Serotonin 5-HT6 radioligand binding ([3H]LSD); conditions: compound at 0.1 μM; read-out: Inhibition of ligand binding, Serotonin 5-HT6 (percent inhibition of specific binding)
T2 construct: expressed in transfected cells; host or cells: HeLa
Source text: Receptor proteins were filtered and washed, the filters were then counted to determine [3H]LSD specifically bound.

[3] = biological target: T3, human recombinant adrenergic α2C receptor (Homo sapiens, UniProt P18825); experiment: Adrenergic α2C radioligand binding ([3H]MK-912); conditions: read-out: Adrenergic (0.1 μM) a2C, percent inhibition of specific binding; compound at 0.1 μM; 1 nM [3H]MK-912
T3 construct: expressed in transfected cells; host or cells: insect Sf9 cells
T3 sequence (P18825 1-462): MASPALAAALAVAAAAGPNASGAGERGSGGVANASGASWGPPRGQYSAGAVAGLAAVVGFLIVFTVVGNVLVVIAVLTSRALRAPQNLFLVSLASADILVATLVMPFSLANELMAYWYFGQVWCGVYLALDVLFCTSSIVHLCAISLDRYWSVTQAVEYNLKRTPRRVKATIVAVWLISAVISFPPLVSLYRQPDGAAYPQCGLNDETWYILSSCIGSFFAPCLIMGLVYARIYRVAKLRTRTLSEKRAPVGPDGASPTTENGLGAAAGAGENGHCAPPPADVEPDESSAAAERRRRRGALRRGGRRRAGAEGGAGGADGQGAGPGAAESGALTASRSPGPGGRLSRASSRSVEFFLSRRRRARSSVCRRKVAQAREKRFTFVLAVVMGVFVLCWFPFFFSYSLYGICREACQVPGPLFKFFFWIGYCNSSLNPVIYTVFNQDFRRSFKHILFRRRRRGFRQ
Outline: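 Membranes from Sf9 cells expressing the human receptor, in 50 mM Tris-HCl pH 7.4 with 12.5 mM MgCl2 and 2 mM EDTA, incubated with compound and 1 nM [3H]MK-912 for 60 min at 25 °C. Non-specific binding defined with 10 μM WB-4101. Filter-bound radioactivity counted; percent inhibition of specific binding reported.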

[4] = biological target: T4, human recombinant serotonin (5-Hydroxytryptamine) 5-HT2C receptor (Homo sapiens, UniProt P28335); experiment: Serotonin 5-HT2C radioligand binding ([3H]Mesulergine); conditions: compound at 0.1 μM; read-out: Inhibition of ligand binding, Serotonin 5-HT2C (percent inhibition of specific binding)
T4 construct: expressed in transfected cells; host or cells: CHO-K1
T4 sequence (P28335 33-458): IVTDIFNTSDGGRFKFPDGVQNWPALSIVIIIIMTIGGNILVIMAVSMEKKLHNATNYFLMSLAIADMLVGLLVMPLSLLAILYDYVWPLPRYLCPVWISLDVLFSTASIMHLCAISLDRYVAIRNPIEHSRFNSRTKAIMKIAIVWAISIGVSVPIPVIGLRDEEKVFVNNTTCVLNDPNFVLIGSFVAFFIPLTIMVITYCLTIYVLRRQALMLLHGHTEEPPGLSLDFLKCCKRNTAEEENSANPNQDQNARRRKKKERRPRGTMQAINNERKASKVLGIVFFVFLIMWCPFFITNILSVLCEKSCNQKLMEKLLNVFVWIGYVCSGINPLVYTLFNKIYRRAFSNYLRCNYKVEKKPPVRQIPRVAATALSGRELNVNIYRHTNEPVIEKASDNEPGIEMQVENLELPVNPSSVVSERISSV
Experimental: Compounds of the invention were incubated with 1 nM [^3H]Mesulergine for 60 min at 25° C. Non-specific binding was estimated in the presence of 1 μM Mianserin. Receptor proteins were filtered and washed, the filters were then counted to determine [^3H]Mesulergine specifically bound.

[5] = biological target: T5, human recombinant serotonin (5-Hydroxytryptamine) 5-HT7 receptor (Homo sapiens, UniProt P34969); experiment: Serotonin 5-HT7 radioligand binding ([3H]LSD); conditions: compound at 0.1 μM; read-out: Inhibition of ligand binding, Serotonin 5-HT7 (percent inhibition of specific binding)
T5 construct: expressed in transfected cells; host or cells: CHO
Experimental: Lysergic acid diethylamide (LSD) for 120 min. at 25° C. […] Receptor proteins were filtered and washed, the filters were then counted to determine [^3H]LSD specifically bound.

[6] = biological target: T6, human recombinant serotonin (5-Hydroxytryptamine) 5-HT5A receptor (Homo sapiens, UniProt P47898); experiment: Serotonin 5-HT5A radioligand binding ([3H]LSD); conditions: compound at 0.1 μM; read-out: Inhibition of ligand binding, Serotonin 5-HT5A (percent inhibition of specific binding)
T6 construct: expressed in transfected cells; host or cells: CHO-K1
Experimental: Compounds of the invention were incubated with 1.7 nM [^3H]Lysergic acid diethylamide (LSD) for 60 min at 37° C. […] Receptor proteins were filtered and washed, the filters were counted to determine [^3H]LSD specifically bound.

T5 sequence (P34969 whole entry): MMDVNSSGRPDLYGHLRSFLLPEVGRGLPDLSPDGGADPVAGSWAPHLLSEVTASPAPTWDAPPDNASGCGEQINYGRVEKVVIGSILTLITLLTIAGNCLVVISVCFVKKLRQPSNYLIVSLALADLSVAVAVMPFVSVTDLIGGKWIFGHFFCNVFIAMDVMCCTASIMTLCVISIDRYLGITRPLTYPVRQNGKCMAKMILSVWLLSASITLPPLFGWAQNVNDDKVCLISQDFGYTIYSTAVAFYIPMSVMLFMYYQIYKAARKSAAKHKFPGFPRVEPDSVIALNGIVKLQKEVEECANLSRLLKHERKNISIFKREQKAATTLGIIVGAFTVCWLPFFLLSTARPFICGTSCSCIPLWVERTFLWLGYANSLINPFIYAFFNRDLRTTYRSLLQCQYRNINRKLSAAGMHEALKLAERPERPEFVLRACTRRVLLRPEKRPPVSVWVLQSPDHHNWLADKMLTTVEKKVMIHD
T6 sequence (P47898 whole entry): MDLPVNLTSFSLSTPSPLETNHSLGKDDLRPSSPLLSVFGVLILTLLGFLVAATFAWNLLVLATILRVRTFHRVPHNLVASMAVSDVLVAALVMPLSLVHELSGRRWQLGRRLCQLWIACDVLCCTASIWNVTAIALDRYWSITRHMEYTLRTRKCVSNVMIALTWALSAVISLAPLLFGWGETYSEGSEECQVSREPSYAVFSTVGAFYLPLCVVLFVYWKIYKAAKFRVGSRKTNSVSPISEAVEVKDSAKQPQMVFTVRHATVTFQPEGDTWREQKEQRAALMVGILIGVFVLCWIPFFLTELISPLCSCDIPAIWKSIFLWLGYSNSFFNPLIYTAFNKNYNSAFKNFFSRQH
T1 sequence (P35367 whole entry): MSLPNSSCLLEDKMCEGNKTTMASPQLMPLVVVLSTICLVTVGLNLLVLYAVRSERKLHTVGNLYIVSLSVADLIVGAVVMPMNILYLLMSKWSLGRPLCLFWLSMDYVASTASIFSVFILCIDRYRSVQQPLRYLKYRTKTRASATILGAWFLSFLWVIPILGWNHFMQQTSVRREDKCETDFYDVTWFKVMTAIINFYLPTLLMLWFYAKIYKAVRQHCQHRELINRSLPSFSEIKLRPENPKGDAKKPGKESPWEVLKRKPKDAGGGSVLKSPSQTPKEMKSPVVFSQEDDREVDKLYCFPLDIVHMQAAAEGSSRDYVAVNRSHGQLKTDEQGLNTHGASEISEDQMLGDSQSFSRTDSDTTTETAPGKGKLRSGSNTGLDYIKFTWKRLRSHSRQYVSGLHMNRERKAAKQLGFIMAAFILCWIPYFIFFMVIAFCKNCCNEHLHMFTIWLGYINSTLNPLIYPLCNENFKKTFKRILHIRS
T2 sequence (P50406 whole entry): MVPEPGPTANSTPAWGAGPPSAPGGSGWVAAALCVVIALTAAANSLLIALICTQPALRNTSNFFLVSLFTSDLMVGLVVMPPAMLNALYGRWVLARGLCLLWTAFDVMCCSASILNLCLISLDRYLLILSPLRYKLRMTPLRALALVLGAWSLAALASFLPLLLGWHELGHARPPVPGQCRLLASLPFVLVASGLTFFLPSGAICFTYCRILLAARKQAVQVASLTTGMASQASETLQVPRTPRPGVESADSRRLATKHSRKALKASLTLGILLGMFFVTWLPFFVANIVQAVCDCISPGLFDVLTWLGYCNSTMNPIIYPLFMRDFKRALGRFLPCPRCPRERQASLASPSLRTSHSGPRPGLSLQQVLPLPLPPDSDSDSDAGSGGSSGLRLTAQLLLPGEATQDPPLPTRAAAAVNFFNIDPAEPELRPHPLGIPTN

COc1ccc(-c2cscc2-n2c3c(c4cc(C)ccc42)CN(C)CC3)cc1 [Compound 37]
inhibition at 1 µM [1]: 6% | inhibition at 0.1 µM [2]: 24% | inhibition at 0.1 µM [3]: 72% | inhibition at 0.1 µM [4]: 81% | inhibition at 0.1 µM [5]: 100% | inhibition at 0.1 µM [6]: 94%

Cc1cc(C)c2c(c1)c1c(n2-c2cccc(-c3ccncc3)c2)CCN(C)C1 [Compound 57, 2,6,8-trimethyl-5-(3-(pyridin-4-yl)phenyl)-2,3,4,5-tetrahydro-1H-pyrido[4,3-b]indole]
inhibition at 1 µM [1]: 45% | inhibition at 0.1 µM [2]: 15% | inhibition at 0.1 µM [3]: 3% | inhibition at 0.1 µM [4]: 28% | inhibition at 0.1 µM [5]: 39% | inhibition at 0.1 µM [6]: 26%

Cc1ccc2c(c1)c1c(n2-c2cscc2-c2ccc(O)nc2)CCN(C)C1 [Compound 49]
inhibition at 1 µM [1]: 7% | inhibition at 0.1 µM [2]: 6% | inhibition at 0.1 µM [3]: -10% | inhibition at 0.1 µM [4]: 19% | inhibition at 0.1 µM [5]: 86% | inhibition at 0.1 µM [6]: 52%

CNC(=O)c1ccc(-c2cscc2-n2c3c(c4cc(C)ccc42)CN(C)CC3)cc1 [Compound No. 155]
inhibition at 1 µM [1]: 10% | inhibition at 0.1 µM [2]: -6% | inhibition at 0.1 µM [3]: 0% | inhibition at 0.1 µM [4]: 31% | inhibition at 0.1 µM [5]: 94% | inhibition at 0.1 µM [6]: 69%

CC(=O)Nc1ccc(-c2ccc(-n3c4c(c5cc(C)ccc53)CN(C)CC4)nc2)cn1 [Compound No. 139, N-(6′-(2,8-dimethyl-3,4-dihydro-1H-pyrido[4,3-b]indol-5(2H)-yl)-3,3′-bipyridin-6-yl)acetamide]
inhibition at 1 µM [1]: 4% | inhibition at 0.1 µM [2]: -1% | inhibition at 0.1 µM [3]: 2% | inhibition at 0.1 µM [4]: 65% | inhibition at 0.1 µM [5]: 13% | inhibition at 0.1 µM [6]: -4%

Cc1ccc2c(c1)c1c(n2-c2ccccc2-c2c(C)noc2C)CCN(C)C1 [Compound No. 82, 4-(2-(2,8-dimethyl-3,4-dihydro-1H-pyrido[4,3-b]indol-5(2H)-yl)phenyl)-3,5-dimethylisoxazole]
inhibition at 1 µM [1]: 18% | inhibition at 0.1 µM [2]: 14% | inhibition at 0.1 µM [3]: 7% | inhibition at 0.1 µM [4]: 68% | inhibition at 0.1 µM [5]: 24% | inhibition at 0.1 µM [6]: 9%

Cc1ccc2c(c1)c1c(n2-c2ccccc2-c2ccnn2C)CCN(C)C1 [Compound 32]
inhibition at 1 µM [1]: 22% | inhibition at 0.1 µM [2]: 5% | inhibition at 0.1 µM [3]: 20% | inhibition at 0.1 µM [4]: 50% | inhibition at 0.1 µM [5]: 55% | inhibition at 0.1 µM [6]: 26%

Cc1ccc2c(c1)c1c(n2-c2cscc2-c2ccc3c(ccn3C)c2)CCN(C)C1 [Compound 33]
inhibition at 1 µM [1]: -7% | inhibition at 0.1 µM [2]: 60% | inhibition at 0.1 µM [3]: 87% | inhibition at 0.1 µM [4]: 49% | inhibition at 0.1 µM [5]: 94% | inhibition at 0.1 µM [6]: 93%

Cc1ccc2c(c1)c1c(n2-c2ccc(-c3cccc4ccccc34)cn2)CCN(C)C1 [Compound No. 141, 2,8-dimethyl-5-(5-(naphthalen-1-yl)pyridin-2-yl)-2,3,4,5-tetrahydro-1H-pyrido[4,3-b]indole]
inhibition at 1 µM [1]: 11% | inhibition at 0.1 µM [2]: 0% | inhibition at 0.1 µM [3]: 16% | inhibition at 0.1 µM [4]: 92% | inhibition at 0.1 µM [5]: 33% | inhibition at 0.1 µM [6]: 87%

Cc1ccc2c(c1)c1c(n2-c2ccc(-c3ccc(C)nc3)cn2)CCN(C)C1 [Compound No. 156, 2,8-dimethyl-5-(6′-methyl-3,3′-bipyridin-6-yl)-2,3,4,5-tetrahydro-1H-pyrido[4,3-b]indole]
inhibition at 1 µM [1]: 12% | inhibition at 0.1 µM [2]: -5% | inhibition at 0.1 µM [3]: -13% | inhibition at 0.1 µM [4]: 96% | inhibition at 0.1 µM [5]: 28% | inhibition at 0.1 µM [6]: 41%

Cc1ccc2c(c1)c1c(n2-c2cccc(-c3c(C)noc3C)c2)CCN(C)C1 [Compound No. 65, 4-(3-(2,8-dimethyl-3,4-dihydro-1H-pyrido[4,3-b]indol-5(2H)-yl)phenyl)-3,5-dimethylisoxazole]
inhibition at 1 µM [1]: 31% | inhibition at 0.1 µM [2]: 38% | inhibition at 0.1 µM [3]: 8% | inhibition at 0.1 µM [4]: 57% | inhibition at 0.1 µM [5]: 46% | inhibition at 0.1 µM [6]: 63%

Cc1ccc2c(c1)c1c(n2-c2cccc(-c3cc4ccccc4s3)c2)CCN(C)C1 [Compound 51, 5-(3-(benzo[b]thiophen-2-yl)phenyl)-2,8-dimethyl-2,3,4,5-tetrahydro-1H-pyrido[4,3-b]indole]
inhibition at 1 µM [1]: 36% | inhibition at 0.1 µM [2]: 15% | inhibition at 0.1 µM [3]: -9% | inhibition at 0.1 µM [4]: 55% | inhibition at 0.1 µM [5]: 13% | inhibition at 0.1 µM [6]: 5%

Cc1ccc2c(c1)c1c(n2-c2cccc(-c3ccc4c(ccn4C)c3)c2)CCN(C)C1 [Compound 53, 2,8-dimethyl-5-(3-(1-methyl-1H-indol-5-yl)phenyl)-2,3,4,5-tetrahydro-1H-pyrido[4,3-b]indole]
inhibition at 1 µM [1]: 18% | inhibition at 0.1 µM [2]: 11% | inhibition at 0.1 µM [3]: 7% | inhibition at 0.1 µM [4]: 47% | inhibition at 0.1 µM [5]: 4% | inhibition at 0.1 µM [6]: 11%

CNC(=O)c1ccc(-c2ccccc2-n2c3c(c4cc(C)ccc42)CN(C)CC3)cc1 [Compound No. 72, 2′-(2,8-dimethyl-3,4-dihydro-1H-pyrido[4,3-b]indol-5(2H)-yl)-N-methylbiphenyl-4-carboxamide]
inhibition at 1 µM [1]: 18% | inhibition at 0.1 µM [2]: 3% | inhibition at 0.1 µM [3]: 1% | inhibition at 0.1 µM [4]: 16% | inhibition at 0.1 µM [5]: 30% | inhibition at 0.1 µM [6]: 14%

Cc1ccc2c(c1)c1c(n2-c2cccc(-c3ccc(F)nc3)c2)CCN(C)C1 [Compound 44, 5-(3-(6-fluoropyridin-3-yl)phenyl)-2,8-dimethyl-2,3,4,5-tetrahydro-1H-pyrido[4,3-b]indole]
inhibition at 1 µM [1]: 41% | inhibition at 0.1 µM [2]: 21% | inhibition at 0.1 µM [3]: 10% | inhibition at 0.1 µM [4]: 83% | inhibition at 0.1 µM [5]: 40% | inhibition at 0.1 µM [6]: 61%

Cc1ccc2c(c1)c1c(n2-c2cccc(-c3cncc4ccccc34)c2)CCN(C)C1 [Compound No. 67, 5-(3-(isoquinolin-4-yl)phenyl)-2,8-dimethyl-2,3,4,5-tetrahydro-1H-pyrido[4,3-b]indole]
inhibition at 1 µM [1]: 32% | inhibition at 0.1 µM [2]: 29% | inhibition at 0.1 µM [3]: 8% | inhibition at 0.1 µM [4]: 23% | inhibition at 0.1 µM [5]: 28% | inhibition at 0.1 µM [6]: 39%

Cc1ccc2c(c1)c1c(n2-c2ccc(-c3ccc(S(N)(=O)=O)cc3)cn2)CCN(C)C1 [Compound No. 145, 4-(6-(2,8-dimethyl-3,4-dihydro-1H-pyrido[4,3-b]indol-5(2H)-yl)pyridin-3-yl)benzenesulfonamide]
inhibition at 1 µM [1]: 17% | inhibition at 0.1 µM [2]: -11% | inhibition at 0.1 µM [3]: 6% | inhibition at 0.1 µM [4]: 66% | inhibition at 0.1 µM [5]: 32% | inhibition at 0.1 µM [6]: 15%
